Data published in US4206127A, “5,6-Dihydro analogues of prostaglandin I2” (Miles Laboratories, Inc., priority 1978, dated 1980).

Columns and labels:
rat gastric secretion = assay: Effects of Prostaglandin Analogues on Gastric Secretion in the Rat (Test B); type: in vivo; conditions: pylorus-ligated rats, subcutaneous 1.5 mg/kg twice (total 3.0 mg/kg), 4 hours
Method: B. Evaluation of the Effects of Prostaglandin Analogues on Gastric Secretion in the Rat
A procedure based on that described by Lipmann (J. Pharm. Pharmacol., 21: 335 [1968]) was used to assess the influence of test compounds on gastric secretion. Rats of one sex weighing 150 to 200 g were randomly divided into groups of six animals each and fasted for 48 hours previously to the experiments, water being available ad libitum. The animals were anesthetized with ether, the abdomen was opened through a midline incision and the pylorus was ligated. Test compounds were diluted from stock solution so as to administer a dose of 1.5 mg/kg in a volume equivalent to 1 ml/kg. Subcutaneous injections were applied immediately after surgery and again 2 hours later, so that a total dose of 3.0 mg/kg was administered. Dilutions were made with phosphate buffer (pH 7.38), as recommended by Lee et al. (Prostaglandins 3: 29 [1973]), in order to insure adequate stability of drugs at the subcutaneous depot. […]
Four hours after pyloric ligation the animals were killed with ether, the cardias ligated and stomachs removed. The volume of gastric secretion was measured and the contents centrifuged at 5000 rpm for 10 minutes. […]
Volume and total acid values of the treated group were compared with those of the controls by the "Squared" test. Antisecretory activity was scored according to the following scale: […]

platelet aggregation = conditions: cited from earlier work
blood vessels = conditions: cited from earlier work

Ethyl 5, 9β-Epoxy-11α,15-dihydroxy-16,20-methanoprost-13E-en-1-oate [TR-4973]
Activity Value, Test B - inhibition of rat gastric secretion (score of % decrease in acidity) (rat gastric secretion): 0 (<26)

9-Deoxy-9a-Homo-6, 9α-epoxy-15S-hydroxyprost-13E-en-1-oic acid [TR-4921]
Activity Value, Test B - inhibition of rat gastric secretion (score of % decrease in acidity) (rat gastric secretion): 2 (26-50, significant)

CCCCC[C@H](O)/C=C/[C@@H]1[C@H]2C/C(=C/CCCC(=O)O)O[C@H]2C[C@H]1O [PGI2, (5Z)-9-deoxy-6, 9α-epoxy-Δ^5-prostaglandin F1α]
inhibition of platelet aggregation (platelet aggregation): the most potent inhibitor of platelet clumping of all the prostaglandins discovered to date
destruction of platelet clumps (platelet aggregation; in vitro, clumps already induced to form): destroys platelet clumps after they have been induced to form
dilation of blood vessels (blood vessels): dilates blood vessels dramatically
